Several values for one entry are separate records, joined by “and”; a condition that tells them apart may be missing. Equal entries are not always repeated. Toxic doses and inconclusive results are not listed. No stated cut-off is given here; in the data, active means T/C of 150% or more; inactive means T/C below 125%.
System: L1210 leukemia ip in BDF1 mice, survival T/C
Experiment: NCI In Vivo Anticancer Drug Screen. Data for tumor model L1210 Leukemia (intraperitoneal) in B6D2F1 (BDF1) mice
Conditions: endpoint: mean survival time, higher = longer survival
Method in brief: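 Transplantable tumor model; survival measured in treated vs vehicle control mice. Value = treated/control.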

[1] = dose: 100.0 mg/kg/injection, schedule: Q01DX009 (ip), vehicle: Klucel (hydroxypropylcellulose) (HPC)
[2] = dose: 200.0 mg/kg/injection, schedule: Q01DX009 (ip), vehicle: Klucel (hydroxypropylcellulose) (HPC)
[3] = dose: 75.0 mg/kg/injection, schedule: Q04DX003 (ip), vehicle: saline
[4] = dose: 100.0 mg/kg/injection, schedule: Q01DX001 (ip), vehicle: saline with Tween-80
[5] = dose: 200.0 mg/kg/injection, schedule: Q01DX001 (ip), vehicle: saline with Tween-80
[6] = dose: 100.0 mg/kg/injection, schedule: Q01DX001 (ip), vehicle: saline
[7] = dose: 25.0 mg/kg/injection, schedule: Q01DX009 (ip), vehicle: saline
[8] = dose: 50.0 mg/kg/injection, schedule: Q01DX009 (ip), vehicle: saline
[9] = dose: 100.0 mg/kg/injection, schedule: Q04DX003 (ip), vehicle: saline
[10] = dose: 5.0 mg/kg/injection, schedule: Q01DX001 (ip), vehicle: saline
[11] = dose: 10.0 mg/kg/injection, schedule: Q01DX001 (ip), vehicle: saline
[12] = dose: 20.0 mg/kg/injection, schedule: Q01DX001 (ip), vehicle: saline
[13] = dose: 25.0 mg/kg/injection, schedule: Q01DX001 (ip), vehicle: saline
[14] = dose: 50.0 mg/kg/injection, schedule: Q01DX001 (ip), vehicle: saline

Measured: T/C

CNC(=O)Oc1ccccc1NC(=O)OC
inactive: dose: 25.0 mg/kg/injection, schedule: Q04DX003 (ip), vehicle: saline with Tween-80 97 % of control | dose: 50.0 mg/kg/injection, schedule: Q04DX003 (ip), vehicle: saline with Tween-80 95 % of control | dose: 100.0 mg/kg/injection, schedule: Q04DX003 (ip), vehicle: saline with Tween-80 92 % of control and 97 % of control

COc1ccc(NC(=O)Oc2ccc(Cl)cc2Cl)c(OC)c1
inactive: [1] 114 % of control | [2] 101 % of control

CC12C(=O)OC3CCC1CC32 (configuration not stated)
inactive: [3] 97 % of control | dose: 150.0 mg/kg/injection, schedule: Q04DX003 (ip), vehicle: saline 94 % of control | dose: 300.0 mg/kg/injection, schedule: Q04DX003 (ip), vehicle: saline 94 % of control

CC(C)c1ccc(C(c2ccc(C(C)C)cc2)c2ccc(C(C)C)cc2)cc1
inactive: [4] 104 % of control | [5] 91 % of control

Nc1cc(Cl)ccc1O
inactive: [6] 98 % of control | dose: 200.0 mg/kg/injection, schedule: Q01DX001 (ip), vehicle: saline 91 % of control

Nc1cncnc1N
inactive: dose: 30.0 mg/kg/injection, schedule: Q01DX Z (ip), vehicle: saline 101 % of control | dose: 60.0 mg/kg/injection, schedule: Q01DX Z (ip), vehicle: saline 103 % of control | dose: 120.0 mg/kg/injection, schedule: Q01DX Z (ip), vehicle: saline 100 % of control | dose: 240.0 mg/kg/injection, schedule: Q01DX Z (ip), vehicle: saline 97 % of control

CC(C)CC(CC(C)C)NC(C)COC(=O)c1ccc(N)cc1 (configuration not stated)
inactive: dose: 75.0 mg/kg/injection, schedule: Q01DX001 (ip), vehicle: saline 96 % of control

Cc1cccc(Nc2c(N)nc(N)nc2N)c1
inactive: [7] 105 % of control | [8] 120 % of control | [9] 104 % of control

CCc1nc(C#N)c(N)o1
inactive: [10] 98 % of control | [11] 103 % of control | [12] 97 % of control | dose: 40.0 mg/kg/injection, schedule: Q01DX001 (ip), vehicle: saline 95 % of control | dose: 80.0 mg/kg/injection, schedule: Q01DX001 (ip), vehicle: saline 98 % of control

Cc1ccc(NC(=O)Oc2ccc(Cl)cc2Cl)cc1NC(=O)Oc1ccc(Cl)cc1Cl
inactive: [1] 89 % of control | [2] 94 % of control | dose: 400.0 mg/kg/injection, schedule: Q01DX009 (ip), vehicle: Klucel (hydroxypropylcellulose) (HPC) 89 % of control

O=[N+]([O-])c1cc2c(cc1/C=N/N=C1c3ccccc3-c3ccccc31)OCO2
inactive: dose: 75.0 mg/kg/injection, schedule: Q01DX001 (ip), vehicle: other 94 % of control | dose: 150.0 mg/kg/injection, schedule: Q01DX001 (ip), vehicle: other 92 % of control

CC(N)Cc1ccccc1 (configuration not stated)
inactive: dose: 1.17 mg/kg/injection, schedule: Q04DX003 (ip), vehicle: saline 98 % of control | dose: 2.34 mg/kg/injection, schedule: Q04DX003 (ip), vehicle: saline 98 % of control | dose: 2.5 mg/kg/injection, schedule: Q04DX003 (ip), vehicle: saline 100 % of control | dose: 4.68 mg/kg/injection, schedule: Q01DX009 (ip), vehicle: saline 94 % of control | dose: 4.68 mg/kg/injection, schedule: Q04DX003 (ip), vehicle: saline 93 % of control | dose: 5.0 mg/kg/injection, schedule: Q04DX003 (ip), vehicle: saline 96 % of control | dose: 6.25 mg/kg/injection, schedule: Q01DX009 (ip), vehicle: saline 103 % of control | dose: 9.37 mg/kg/injection, schedule: Q01DX009 (ip), vehicle: saline 93 % of control | dose: 9.37 mg/kg/injection, schedule: Q04DX003 (ip), vehicle: saline 106 % of control | dose: 10.0 mg/kg/injection, schedule: Q04DX003 (ip), vehicle: saline 97 % of control | dose: 12.5 mg/kg/injection, schedule: Q01DX001 (ip), vehicle: saline 96 % of control | dose: 12.5 mg/kg/injection, schedule: Q01DX009 (ip), vehicle: saline 97 % of control | dose: 18.74 mg/kg/injection, schedule: Q04DX003 (ip), vehicle: saline 107 % of control | dose: 18.75 mg/kg/injection, schedule: Q01DX009 (ip), vehicle: saline 87 % of control | dose: 18.75 mg/kg/injection, schedule: Q04DX003 (ip), vehicle: saline 97 % of control | dose: 20.0 mg/kg/injection, schedule: Q04DX003 (ip), vehicle: saline 97 % of control | [13] 101 % of control | [7] 100 % of control | dose: 25.0 mg/kg/injection, schedule: Q04DX003 (ip), vehicle: saline 100 % of control | dose: 37.48 mg/kg/injection, schedule: Q03HX024 (ip), vehicle: saline 96 % of control | dose: 37.5 mg/kg/injection, schedule: Q01DX009 (ip), vehicle: saline 103 % of control | dose: 37.5 mg/kg/injection, schedule: Q04DX003 (ip), vehicle: saline 108 % of control | dose: 40.0 mg/kg/injection, schedule: Q04DX003 (ip), vehicle: saline 103 % of control | [14] 109 % of control | [8] 101 % of control | dose: 50.0 mg/kg/injection, schedule: Q04DX003 (ip), vehicle: saline 100 % of control | [3] 100 % of control | [6] 102 % of control | [9] 105 % of control

Cc1nc(C#N)c(N)o1
inactive: [10] 103 % of control | [11] 103 % of control | [12] 98 % of control

Cc1[nH]c2ccccc2c1C(c1cc(Cl)cc(Cl)c1O)c1c(C)[nH]c2ccccc12
inactive: dose: 100.0 mg/kg/injection, schedule: Q04DX002 (ip), vehicle: saline with Tween-80 87 % of control | dose: 200.0 mg/kg/injection, schedule: Q04DX002 (ip), vehicle: saline with Tween-80 94 % of control | dose: 400.0 mg/kg/injection, schedule: Q04DX002 (ip), vehicle: saline with Tween-80 91 % of control

COc1cc(C=Nc2ccc(C(=O)O)cc2)ccc1N(CCCl)CCCl
inactive: dose: 6.0 mg/kg/injection, schedule: Q01DX001 (ip), vehicle: carboxymethylcellulose (CMC) 107 % of control | dose: 12.0 mg/kg/injection, schedule: Q01DX015 (ip), vehicle: carboxymethylcellulose (CMC) 109 % of control | dose: 12.5 mg/kg/injection, schedule: Q01DX001 (ip), vehicle: carboxymethylcellulose (CMC) 112 % of control

CC1=COC2(CC1)OC1CC3C4CCC5CC(O)CCC5(C)C4CCC3(C)C1C2C (configuration not stated)
inactive: [4] 96 % of control | [5] 102 % of control | dose: 400.0 mg/kg/injection, schedule: Q01DX001 (ip), vehicle: saline with Tween-80 95 % of control

COC1OC(CO)C(O)C1n1cnc2c(N)ncnc21 (configuration not stated)
inactive: [13] 90 % of control | [14] 106 % of control | [6] 103 % of control

CCOC(=O)/C(O)=C\c1nnccc1Cl
inactive: dose: 56.25 mg/kg/injection, schedule: Q04DX002 (ip), vehicle: saline 96 % of control | dose: 112.5 mg/kg/injection, schedule: Q04DX002 (ip), vehicle: saline 104 % of control | dose: 225.0 mg/kg/injection, schedule: Q04DX002 (ip), vehicle: saline 101 % of control
